From patent publication US11952344B2, “Heterocyclic compound and use thereof” (TAKEDA PHARMACEUTICAL COMPANY LIMITED, priority 2019, dated 2024)

molecular target: T1, Human NMDA (NR1/NR2B) Receptor (Homo sapiens, UniProt Q13224); assay: NR2B Ca2+ influx assay; format: cell-based; settings: 10 μM compound; HEK293 cells expressing GRIN1 and GRIN2B; glutamic acid/glycine-induced Ca2+ influx, Fluo-4 fluorescence; read-out: inhibitory rate (10 μM compound concentration)
T1 construct: host or cells: HEK293
T1 sequence (Q13224 27-1484, other chains not shown): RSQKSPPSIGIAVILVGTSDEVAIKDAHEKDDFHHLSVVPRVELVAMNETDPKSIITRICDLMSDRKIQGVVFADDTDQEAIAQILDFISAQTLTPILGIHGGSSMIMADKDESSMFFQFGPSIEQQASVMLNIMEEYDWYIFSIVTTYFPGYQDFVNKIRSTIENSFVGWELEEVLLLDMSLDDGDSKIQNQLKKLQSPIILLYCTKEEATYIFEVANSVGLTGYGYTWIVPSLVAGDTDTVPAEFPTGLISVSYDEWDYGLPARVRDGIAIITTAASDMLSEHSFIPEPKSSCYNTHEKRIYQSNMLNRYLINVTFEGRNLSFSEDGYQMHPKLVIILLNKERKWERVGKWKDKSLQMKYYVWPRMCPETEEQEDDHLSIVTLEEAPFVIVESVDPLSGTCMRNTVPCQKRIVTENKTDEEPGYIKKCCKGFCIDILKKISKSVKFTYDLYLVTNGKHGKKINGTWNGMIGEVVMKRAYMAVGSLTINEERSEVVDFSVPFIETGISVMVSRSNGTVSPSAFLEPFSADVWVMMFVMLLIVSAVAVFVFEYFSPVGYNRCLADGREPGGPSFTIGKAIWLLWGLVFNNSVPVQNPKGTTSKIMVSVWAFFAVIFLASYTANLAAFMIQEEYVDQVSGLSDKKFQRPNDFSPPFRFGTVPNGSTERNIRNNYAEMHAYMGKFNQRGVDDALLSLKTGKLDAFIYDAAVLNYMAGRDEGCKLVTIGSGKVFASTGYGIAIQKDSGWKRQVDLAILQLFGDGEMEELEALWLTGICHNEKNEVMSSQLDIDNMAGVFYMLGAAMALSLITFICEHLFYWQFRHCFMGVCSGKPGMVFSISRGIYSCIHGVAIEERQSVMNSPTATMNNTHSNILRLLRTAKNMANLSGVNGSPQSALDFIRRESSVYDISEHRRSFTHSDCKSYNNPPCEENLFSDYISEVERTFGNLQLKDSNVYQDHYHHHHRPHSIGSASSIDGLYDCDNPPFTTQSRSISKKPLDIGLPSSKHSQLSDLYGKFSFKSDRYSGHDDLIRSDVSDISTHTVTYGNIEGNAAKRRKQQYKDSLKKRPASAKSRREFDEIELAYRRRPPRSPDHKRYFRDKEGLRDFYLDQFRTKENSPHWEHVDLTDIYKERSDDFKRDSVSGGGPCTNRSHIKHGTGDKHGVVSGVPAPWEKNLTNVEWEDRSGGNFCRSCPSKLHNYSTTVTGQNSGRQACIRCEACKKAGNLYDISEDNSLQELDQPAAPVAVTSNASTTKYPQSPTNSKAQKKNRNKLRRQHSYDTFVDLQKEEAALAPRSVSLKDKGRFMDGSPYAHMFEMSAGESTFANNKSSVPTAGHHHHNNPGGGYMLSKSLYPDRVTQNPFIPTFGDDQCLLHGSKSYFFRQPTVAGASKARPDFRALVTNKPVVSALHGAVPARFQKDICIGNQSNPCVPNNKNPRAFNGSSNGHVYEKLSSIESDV
Excerpt: Experimental Example 1 NR2B Ca^2+ Influx Assay
To confirm the “antagonistic action on an NMDA receptor containing the NR2B subunit” of the compound of the present invention, human embryonic kidney cell expressing the “NMDA receptor composed of four subunits including 2 sets of heterodimers of NR1 and NR2B”, specifically HEK293 cell expressing human glutamate ionotropic receptor NMDA type subunit 1 (GRIN1) and human glutamate ionotropic receptor NMDA type subunit 2B (GRIN2B), was used and the activation suppressive effect (inhibitory activity) on the receptors by the compound of the present invention was measured.
HEK293 cells that express GRIN1 and GRIN2B were purchased from ChanTest (Human NMDA (NR1/NR2B) Receptor-expressing, stable replicating cell line (HEK293) catalog No. CT6121).
As an index of the NMDA receptor activation, intracellular calcium ion (Ca^2+) influx caused by the binding of glycine and glutamic acid with NR1 and NR2B, respectively, was used.
HEK293 cells that express GRIN1 and GRIN2B were cultured in a cell culture flask in DMEM/F-12 (COSMO BIO, 10-092-CM) medium added with 10% FBS (fetal bovine serum, AusGene), 100 units/mL penicillin, 100 μg/mL streptomycin, 500 μg/mL neomycin, 100 μg/mL Zeocin (registered trade mark, Invitrogen), 5 μg/mL Blasticidin, in an incubator (37° C., 5% CO2).
The cells were detached from flask with trypsin the day before the assay, suspended in a seeding medium (DMEM (Invitrogen, 31053) added with 10% FBS, 100 units/mL penicillin, 100 μg/mL streptomycin) at 8×10^5 cells/mL, seeded by 25 μL/well in a 384-well plate (Falcon, 356663) at 20000 cells/well, and cultured overnight in an incubator. On the day of the assay, tetracycline (Wako Pure Chemical Industries, Ltd., 209-16561) was diluted with the seeding medium at 2 μg/mL, added at 25 μL/well to the plate seeded with the cells, and cultured for 2 hr in an incubator. Thereafter, the medium was removed, and the cells were washed with 50 μL/well assay buffer (137 mM NaCl, 4 mM KCl, 1.8 mM CaCl2, 10 mM HEPES (pH 7.2), 10 mM Glucose, 0.1% BSA). Then, a loading buffer (assay buffer added with 2.5 μM Fluo-4AM, 2 mM Amaranth, 1 mM Tartrazine) was added at 25 μL/well, and incubation was performed in the incubator for 30 min, and at room temperature for 15 min. A solution (25 μL/well) of the Example compound diluted with the above-mentioned assay buffer at 30 μM (final concentration 10 μM) was added, and the cells were stood for 15 min at room temperature. Using FDSS7000EX/μCELL (Hamamatsu Photonics K.K.), 25 μL/well of an assay buffer containing 30 μM glutamic acid, 30 μM glycine was added, and the fluorescence signal at wavelength of Excitation 480 nm, Emission 540 nm was measured every 3 seconds for 5 min. The inhibitory activity was calculated as a relative activity value (inhibitory rate) that inhibits 100% of the cumulative value of the fluorescence value of a well added with an assay buffer free of glutamic acid, glycine, relative to the cumulative value of the fluorescence value of each well.

| inhibition at 10 µM [%] | SMILES |
| --- | --- |
| 91 | O=C(NCc1cncnc1OC1CC1)c1cnc(OC(F)F)c(F)c1 [Example 19, N-{[4-(cyclopropyloxy)pyrimidin-5-yl]methyl}-6-(difluoromethoxy)-5-fluoropyridine-3-carboxamide] |
| 78 | Cc1ccncc1CNC(=O)c1cc(F)c(C(F)F)c(F)c1 [Example 57, 4-(difluoromethyl)-3,5-difluoro-N-[(4-methylpyridin-3-yl)methyl]benzamide] |
| 91 | Cc1ccncc1CNC(=O)c1ccc(C(F)(F)F)c(F)c1 [Example 53, 3-fluoro-N-[(4-methylpyridin-3-yl)methyl]-4-(trifluoromethyl)-benzamide] |
| 96 | Cc1ccncc1CNC(=O)c1cnc(OC(F)(F)F)c(F)c1 [Example 35, 5-fluoro-N-[(4-methylpyridin-3-yl)methyl]-6-(trifluoromethoxy)-pyridine-3-carboxamide] |
| 96 | O=C(NCc1cncnc1OC1CC(F)(F)C1)c1cnc(OC(F)F)c(F)c1 [Example 32, N-({4-[(3,3-difluorocyclobutyl)-oxy]pyrimidin-5-yl}methyl)-6-(difluoromethoxy)-5-fluoropyridine-3-carboxamide] |
| 95 | Cc1c(F)cncc1CNC(=O)c1cnc(C(C)(F)F)c(Cl)c1 [Example 98, 5-chloro-6-(1,1-difluoroethyl)-N-[(5-fluoro-4-methylpyridin-3-yl)methyl]pyridine-3-carboxamide] |
| 79 | COc1ncc(C(=O)NCc2cnccc2C)cc1F [Example 44, 5-fluoro-6-methoxy-N-[(4-methylpyridin-3-yl)methyl]pyridine-3-carboxamide] |
| 96 | Cc1ccncc1CNC(=O)c1ccc(OC(F)(F)F)cc1 [Example 4, N-[(4-methylpyridin-3-yl)methyl]-4-(trifluoromethoxy)benzamide] |
| 94 | COc1ncncc1CNC(=O)c1cnc(OC(F)(F)F)c(F)c1 [Example 33, 5-fluoro-N-[(4-methoxypyrimidin-5-yl)methyl]-6-(trifluoromethoxy)pyridine-3-carboxamide] |
| 86 | COc1ncncc1CNC(=O)c1cnc(C(C)(F)F)c(F)c1 [Example 92, 6-(1,1-difluoroethyl)-5-fluoro-N-[(4-methoxypyrimidin-5-yl)methyl]pyridine-3-carboxamide] |
| 96 | O=C(NCc1cnccc1C1CC1)c1cnc(OC(F)F)c(F)c1 [Example 15, N-[(4-cyclopropylpyridin-3-yl)methyl]-6-(difluoromethoxy)-5-fluoropyridine-3-carboxamide] |
| 94 | O=C(NCc1cncnc1OC1CC1)c1cnc(OC(F)F)c(Cl)c1 [Example 78, 5-chloro-N-{[4-(cyclopropyloxy)pyrimidin-5-yl]methyl}-6-(difluoromethoxy)pyridine-3-carboxamide] |
| 94 | O=C(NCc1cncnc1OC1CC1)c1ccc(OC(F)F)c(F)c1 [Example 77, N-{[4-(cyclopropyloxy)-pyrimidin-5-yl]methyl}-4-(difluoromethoxy)-3-fluorobenzamide] |
| 90 | CC(F)(F)c1ccncc1CNC(=O)c1cnc(OC(F)F)c(F)c1 [Example 43, N-{[4-(1,1-difluoroethyl)pyridin-3-yl]methyl}-6-(difluoromethoxy)-5-fluoropyridine-3-carboxamide] |
| 89 | O=C(NCc1cnccc1OC(F)F)c1cnc(OC(F)F)c(F)c1 [Example 99, 6-(difluoromethoxy)-N-{[4-(difluoromethoxy)pyridin-3-yl]methyl}-5-fluoropyridine-3-carboxamide] |
| 91 | CC(F)(F)c1ncc(C(=O)NCc2cncnc2OC2CC2)cc1F [Example 91, N-{[4-(cyclopropyloxy)-pyrimidin-5-yl]methyl}-6-(1,1-difluoroethyl)-5-fluoropyridine-3-carboxamide] |
| 95 | Cc1ccncc1CNC(=O)c1cnc(C2CC2)c(F)c1 [Example 46, 6-cyclopropyl-5-fluoro-N-[(4-methylpyridin-3-yl)methyl]pyridine-3-carboxamide] |

| inhibition at 10 µM [%] | SMILES |
| --- | --- |
| 90 | Cc1ccncc1CNC(=O)c1cnc(C(C)(F)F)c(F)c1 [Example 93, 6-(1,1-difluoroethyl)-5-fluoro-N-[(4-methylpyridin-3-yl)methyl]pyridine-3-carboxamide] |
| 95 | COc1ccncc1CNC(=O)c1ccc(OC(F)(F)F)c(F)c1 [Example 8, 3-fluoro-N-[(4-methoxypyridin-3-yl)methyl]-4-(trifluoromethoxy)-benzamide] |
| 92 | COc1ccncc1CNC(=O)c1cc(F)c(OC)c(F)c1 [Example 89, 3,5-difluoro-4-methoxy-N-[(4-methoxypyridin-3-yl)methyl]benzamide] |
| 96 | O=C(NCc1cnccc1OC(F)F)c1ccc(OC(F)(F)F)c(F)c1 [Example 112, N-[(4-(difluoromethoxy)-pyridin-3-yl)methyl]-3-fluoro-4-(trifluoromethoxy)-benzamide] |
| 94 | COc1ccncc1CNC(=O)c1cnc(OC(F)F)c(F)c1 [Example 5, 6-(difluoromethoxy)-5-fluoro-N-[(4-methoxypyridin-3-yl)methyl]pyridine-3-carboxamide] |
| 96 | CCOc1ccncc1CNC(=O)c1cnc(OC(F)F)c(F)c1 [Example 10, 6-(difluoromethoxy)-N-[(4-ethoxypyridin-3-yl)methyl]-5-fluoropyridine-3-carboxamide] |
| 92 | CC(F)(F)c1ncncc1CNC(=O)c1cnc(OC(F)F)c(F)c1 [Example 29, N-{[4-(1,1-difluoroethyl)-pyrimidin-5-yl]methyl}-6-(difluoromethoxy)-5-fluoropyridine-3-carboxamide] |
| 94 | Cc1c(F)cncc1CNC(=O)c1cnc(C2CC2)c(F)c1 [Example 80, 6-cyclopropyl-5-fluoro-N-[(5-fluoro-4-methylpyridin-3-yl)methyl]pyridine-3-carboxamide] |
| 87 | CCOc1ncc(C(=O)NCc2cncnc2OC)cc1Cl [Example 85, 5-chloro-6-ethoxy-N-[(4-methoxypyrimidin-5-yl)methyl]pyridine-3-carboxamide] |
| 95 | COc1c(F)cc(C(=O)NCc2cncc(F)c2OC)cc1F [Example 90, 3,5-difluoro-N-[(5-fluoro-4-methoxypyridin-3-yl)methyl]-4-methoxybenzamide] |
| 91 | COc1ccncc1CNC(=O)c1ccc(OC(F)(F)F)cc1 [Example 7, N-[(4-methoxypyridin-3-yl)methyl]-4-(trifluoromethoxy)benzamide] |
| 91 | Cc1c(F)cncc1CNC(=O)c1cnc(C(C)(F)F)c(F)c1 [Example 94, 6-(1,1-difluoroethyl)-5-fluoro-N-[(5-fluoro-4-methylpyridin-3-yl)methyl]pyridine-3-carboxamide] |
| 87 | Cc1ccncc1CNC(=O)c1ccc(OC(F)F)nc1 [Example 51, 6-(difluoromethoxy)-N-[(4-methylpyridin-3-yl)methyl]pyridine-3-carboxamide] |
| 87 | CCOc1c(F)cc(C(=O)NCc2cnccc2C)cc1F [Example 72, 4-ethoxy-3,5-difluoro-N-[(4-methylpyridin-3-yl)methyl]benzamide] |
| 92 | Cc1ccncc1CNC(=O)c1cnc(C(C)(F)F)c(Cl)c1 [Example 97, 5-chloro-6-(1,1-difluoroethyl)-N-[(4-methylpyridin-3-yl)methyl]pyridine-3-carboxamide] |
| 95 | Cc1ccncc1CNC(=O)c1cnc(OC(F)F)c(Cl)c1 [Example 27, 5-chloro-6-(difluoromethoxy)-N-[(4-methylpyridin-3-yl)methyl]pyridine-3-carboxamide] |
